Results as given in US11229398B2, “Electrode assemblies for neurostimulation treatment” (Cardionomic, Inc., priority 2016, dated 2022).

Tested on: normal, non-HF ovine model
Assay: Change in contractility (max(dP/dt) from pressure measurements as surrogate) and beat-by-beat correlation of right and left ventricle contractility after an injection
Format: in vivo
Details: for Contractility % Increase: after the injection, max(dP/dt) used as surrogate for contractility
Text: The correlation was a heartbeat-by-heartbeat analysis. Pressure measurements, taken by a Millar catheter comprising a MEMS pressure sensor, in units of max(dP/dt) was used as a surrogate for contractility.
The first change, a dobutamine injection, provided a very high contractility increase greater than 500%. The average correlation between right ventricle contractility and left ventricle contractility was very good at 0.91, where 1.00 is a perfect correlation. Accordingly, if a subject is given a dobutamine injection, measuring changes to right ventricle contractility can provide accurate information about changes to left ventricle contractility. The first change was repeated three times.
The second change, calcium injection at 5 mL, provided a contractility increase of about 20%. […] The average correlation between right ventricle contractility and left ventricle contractility using a Millar (MEMS) sensor on a catheter was very good at 0.91. The average correlation between right ventricle contractility and left ventricle contractility using a fluid-filled lumen of a Swan-Ganz catheter in communication with an external pressure sensor was also very good at 0.87. Accordingly, under certain circumstances such as measurement of an animal (normal, non-HF ovine model) model, if a subject is given a calcium injection, measuring changes to right ventricle contractility with a MEMS sensor or a fluid filled lumen can provide accurate information about changes to left ventricle contractility.
The fourth change, neurostimulation as described herein, provided a contractility increase of about 28%. The correlation between right ventricle contractility and left ventricle contractility was very good at 0.90. Accordingly, if a subject is given neurostimulation, measuring changes to right ventricle contractility can provide accurate information about changes to left ventricle contractility. […] Thereafter, the left ventricle contractility tapered off logarithmically or exponentially, but the right ventricle contractility decreased very slowly. These differences help to show why the correlation between left ventricle contractility and right ventricle contractility are poorly correlated for calcium injections. The fourth change was not repeated.

[1] = first several beats after the injection

Q: How did the “Contractility % Increase” value turn out when calcium [Calcium Injection (5 mL)] was run?
A: ~20%

Q: And the “Contractility % Increase” value (listed as calcium injection)?
A: about 20%

Q: And the left ventricle contractility [1]?
A: increased dramatically

Q: And the right ventricle contractility [1]?
A: only slightly increased
